# Data as given in US11090304B2 (Amgen Inc., priority 2018, dated 2021).
# pIC50: −log10 of the molar value. Read-outs that look alike come from different tables or passages of the source.
# Tests used:
# [1] = target: GDP-bound KRAS protein (aa 1-169), containing both G12C and C118A amino acid substitutions (Homo sapiens, UniProt P01116, C118A/G12C); test: Coupled nucleotide exchange assay (SOS-mediated, AlphaScreen); assay type: biochemical; conditions: 5 min compound pre-incubation
# [2] = tested on: Phosphorylation of ERK1/2 in MIA PaCa-2 cells; test: Phospho-ERK1/2 MSD assay in MIA PaCa-2 cells; assay type: cell-based; conditions: read-out: p-ERK IC50 (2 h; MIA PaCa-2), 2 h compound treatment
# In short: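 Following a 2 or 4 h incubation with titrated compound, cells receive a 10 min pulse of 10 ng/mL EGF. Phospho-ERK1/2 in RIPA lysates is then quantified by MSD immunoassay, and IC50 values come from a four-parameter logistic model.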
# GDP-bound KRAS protein (aa 1-169), containing both G12C and C118A amino acid substitutions, sequence (P01116 1-169 isoform P01116-2 G12C/C118A): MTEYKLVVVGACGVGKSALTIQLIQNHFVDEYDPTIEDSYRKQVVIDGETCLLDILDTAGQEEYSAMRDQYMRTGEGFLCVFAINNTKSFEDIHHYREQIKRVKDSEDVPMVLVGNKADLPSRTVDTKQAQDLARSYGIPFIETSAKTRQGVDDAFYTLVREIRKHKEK
Structure (SMILES),Coupled exchange IC50 (5 min) [1],"pIC50 ([2]; Homo sapiens, MIA PaCa-2, 2 h)",pIC50 [2]
"C=CC(=O)N1CCN(c2nc(=O)n(-c3c(C)cc(N)nc3C(C)C)c3nc(-c4ccccc4F)c(Cl)cc23)[C@@H](C)C1 [Example 136, 1-(6-Amino-4-methyl-2-(2-propanyl)-3-pyridinyl)-6-chloro-7-(2-fluorophenyl)-4-((2S)-2-methyl-4-(2-propenoyl)-1-piperazinyl)pyrido[2,3-d]pyrimidin-2(1H)-one]",0.135 | nda μM,6.92,
"C=CC(=O)N1CCN(c2nc(=O)n(-c3c(C)ccnc3C(C)C)c3nc(-c4c(O)cccc4Cl)c(F)cc23)[C@@H](C)C1 (single isomer, unassigned) [Example 58-9-1]",0.046 | nda μM,,7.33
"C=CC(=O)N1CCN(c2nc(=O)n(-c3ccccc3C(C)C)c3nc(-c4cc(OC)ccc4F)c(Cl)cc23)[C@@H](C)C1 [Example 56-9, 6-chloro-7-(2-fluoro-5-methoxyphenyl)-4-((2S)-2-methyl-4-(2-propenoyl)-1-piperazinyl)-1-(2-(2-propanyl)phenyl)pyrido[2,3-d]pyrimidin-2(1H)-one]",0.269 | nda μM,6.80,
"C=CC(=O)N1CCN(c2nc(=O)n(-c3c(C)ncnc3C(C)C)c3nc(-c4ccccc4F)c(Cl)cc23)[C@@H](C)C1 [Example 55-13, 6-chloro-7-(2-fluorophenyl)-1-(4-methyl-6-(2-propanyl)-5-pyrimidinyl)-4-((2S)-2-methyl-4-(2-propenoyl)-1-piperazinyl)pyrido[2,3-d]pyrimidin-2(1H)-one]",0.191 | nda μM,6.75,
"C=CC(=O)N1CCN(c2nc(=O)n(-c3c(C)cc(C(=O)O)cc3C(C)C)c3nc(-c4ccccc4F)c(Cl)cc23)[C@@H](C)C1 [Example 141, 4-(6-Chloro-7-(2-fluorophenyl)-4-((2S)-2-methyl-4-(2-propenoyl)-1-piperazinyl)-2-oxopyrido[2,3-d]pyrimidin-1(2H)-yl)-3-methyl-5-(2-propanyl)benzoic acid]",0.393 | nda μM,5.28,
"C=CC(=O)N1CCN(c2nc(=O)n(-c3scnc3C(C)C)c3nc(-c4c(O)cccc4F)c(F)cc23)[C@@H](C)C1 [Example 57-11, 6-fluoro-7-(2-fluoro-6-hydroxyphenyl)-4-((2S)-2-methyl-4-(2-propenoyl)-1-piperazinyl)-1-(4-(2-propanyl)-1,3-thiazol-5-yl)pyrido[2,3-d]pyrimidin-2(1H)-one]",0.24 | nda μM,6.58,
"C=CC(=O)N1CCN(c2nc(=O)n(-c3c(C)ccnc3C(C)C)c3nc(-c4ccccc4F)c(C)nc23)[C@@H](C)C1 (single isomer, unassigned) [Example 143-2]",2.43 | nda μM,,6.40
"C=CC(=O)N1C[C@@H](C)N(c2nc(=O)n(-c3c(C)ccnc3C(C)C)c3nc(-c4c(N)cccc4F)c(F)cc23)[C@@H](C)C1 (single isomer, unassigned) [Example 75-8]",0.023 | nda μM,7.42,
"C=CC(=O)N1CCN(c2nc(=O)n(-c3ccccc3C(C)C)c3nc(-c4ccc(F)cc4O)c(Cl)cc23)[C@@H](C)C1 [Example 54-77, 6-chloro-7-(4-fluoro-2-hydroxy-phenyl)-4-((2S)-2-methyl-4-(2-propenoyl)-1-piperazinyl)-1-(2-(2-propanyl)phenyl)pyrido [2,3-d]pyrimidin-2(1H)-one]",0.218 | nda μM,6.80,
"C=CC(=O)N1CCN(c2nc(=O)n(-c3c(C)ccnc3C(C)C)c3nc(-c4cc(O)c(F)cc4F)c(F)cc23)[C@@H](C)C1 (atropisomer, axis not shown; (M)) [Example 72-7, (M)-7-(2,4-difluoro-5-hydroxyphenyl)-6-fluoro-1-(4-methyl-2-(2-propanyl)-3-pyridinyl)-4-((2S)-2-methyl-4-(2-propenoyl)-1-piperazinyl)pyrido[2,3-d]pyrimidin-2(1H)-one]",0.262 | nda μM,5.65,
"C=CC(=O)N1C[C@@H](C)N(c2nc(=O)n(-c3c(C)ccnc3C(C)C)c3nc(-c4ccccc4F)c(Cl)cc23)[C@@H](C)C1 (single isomer, unassigned) [Example 78-7, (M)-6-chloro-4-(cis-2,6-dimethyl-4-(2-propenoyl)-1-piperazinyl)-7-(2-fluorophenyl)-1-(4-methyl-2-(2-propanyl)-3-pyridinyl)pyrido[2,3-d]pyrimidin-2(1H)-one]",0.034 | nda μM,7.64,
"C=CC(=O)N1CCN(c2nc(=O)n(-c3c(C)ccnc3C(C)C)c3nc(-c4cc(N)ccc4F)c(F)cc23)[C@@H](C)C1 (single isomer, unassigned) [Example 58-6-2]",0.236 | nda μM,6.44,
"C=CC(=O)N1CCN(c2nc(=O)n(-c3ccccc3-c3ccccc3)c3nc(-c4c(O)cccc4F)c(Cl)cc23)[C@@H](C)C1 [Example 54-74, 1-([biphenyl]-2-yl)-6-chloro-7-(2-fluoro-6-hydroxyphenyl)-4-((2S)-2-methyl-4-(2-propenoyl)-1-piperazinyl) pyrido[2,3-d]pyrimidin-2(1H)-one]",0.582 | nda μM,6.03,
"C=CC(=O)N1CCN(c2nc(=O)n(-c3c(C)ccnc3C(C)C)c3nc(-c4c(O)cccc4Cl)c(F)cc23)[C@@H](C)C1 (single isomer, unassigned) [Example 58-9-2]",0.349 | nda μM,,6.49
"C=CC(=O)N1CCN(c2nc(=O)n(-c3ccccc3C(C)C)c3nc(-c4cc(OC(F)F)ccc4F)c(Cl)cc23)[C@@H](C)C1 (single isomer, unassigned) [Example 54-51-1]",0.108 | nda μM,6.58,
"C=CC(=O)N1CCN(c2nc(=O)n(-c3c(CC)ncnc3CC)c3nc(-c4ccc(F)cc4F)c(Cl)cc23)[C@@H](C)C1 [Example 55-35, 6-chloro-1-(4,6-diethyl-5-pyrimidinyl)-7-(2,4-difluorophenyl)-4-((2S)-2-methyl-4-(2-propenoyl)-1-piperazinyl)pyrido[2,3-d]pyrimidin-2(1H)-one]",0.225 | nda μM,6.60,
"C=CC(=O)N1CCN(c2nc(=O)n(-c3c(C#N)cccc3C(C)C)c3nc(-c4ccccc4F)c(Cl)cc23)[C@@H](C)C1 [Example 60-20, 2-(6-chloro-7-(2-fluorophenyl)-4-((2S)-2-methyl-4-(2-propenoyl)-1-piperazinyl)-2-oxopyrido[2,3-d]pyrimidin-1(2H)-yl)-3-(2-propanyl)benzonitrile]",0.053 | nda μM,7.21,
"C=CC(=O)N1CCN(c2nc(=O)n(-c3c(C)ccnc3CC)c3nc(-c4c(O)cccc4F)c(Cl)cc23)[C@@H](C)C1 [Example 55-10, 6-chloro-1-(2-ethyl-4-methyl-3-pyridinyl)-7-(2-fluoro-6-hydroxyphenyl)-4-((2S)-2-methyl-4-(2-propenoyl)-1-piperazinyl)pyrido[2,3-d]pyrimidin-2(1H)-one]",0.123 | nda μM,6.81,
"C=CC(=O)N1CCN(c2nc(=O)n(-c3c(C)cccc3C(C)C)c3nc(-c4cc(F)c(F)cc4O)c(Cl)cc23)[C@@H](C)C1 (single isomer, unassigned) [Example 64-2]",0.151 | nda μM,6.59,
"C=CC(=O)N1C[C@H](C)N(c2nc(=O)n(-c3c(C(C)C)ncnc3C(C)C)c3nc(-c4ccccc4F)c(Cl)cc23)[C@@H](C)C1 [Example 87-1, 6-Chloro-4-((2S,6S)-2,6-dimethyl-4-(2-propenoyl)-1-piperazinyl)-1-(4,6-di(2-propanyl)-5-pyrimidinyl)-7-(2-fluorophenyl)pyrido[2,3-d]pyrimidin-2(1H)-one]",0.034 | nda μM,7.96,
"C=CC(=O)N1CCN(c2nc(=O)n(-c3ccncc3C(C)C)c3nc(-c4c(O)cccc4F)c(Cl)cc23)[C@@H](C)C1 [Example 54-36, 6-chloro-7-(2-fluoro-6-hydroxy-phenyl)-4-((2S)-2-methyl-4-(2-propenoyl)-1-piperazinyl)-1-(3-(2-propanyl)-4-pyridinyl) pyrido[2,3-d]pyrimidin-2(1H)-one]",0.149 | nda μM,6.80,
"C=CC(=O)N1CCN(c2nc(=O)n(-c3c(C)cccc3C(C)C)c3nc(-c4c(O)cccc4Cl)c(F)cc23)[C@@H](C)C1 (single isomer, unassigned) [Example 68-1-2]",0.613 | nda μM,,6.13
"C=CC(=O)N1CCN(c2nc(=O)n(-c3c(CC)cccc3CC)c3cc(-c4ccccc4F)c(Cl)cc23)[C@@H](C)C1 [Example 103, 6-Chloro-1-(2,6-diethylphenyl)-7-(2-fluorophenyl)-4-((2S)-2-methyl-4-(2-propenoyl)-1-piperazinyl)-2(1H)-quinazolinone]",0.099 | nda μM,6.75,
"C=CC(=O)N1CCN(c2nc(=O)n(-c3c(C)cc(C(=O)OC)cc3C(C)C)c3nc(-c4ccccc4F)c(Cl)cc23)[C@@H](C)C1 [Example 156, Methyl 4-(6-chloro-7-(2-fluorophenyl)-4-((2S)-2-methyl-4-(2-propenoyl)-1-piperazinyl)-2-oxopyrido[2,3-d]pyrimidin-1(2H)-yl)-3-methyl-5-(2-propanyl)benzoate]",0.057 | nda μM,7.10,
"C=CC(=O)N1CCN(c2nc(=O)n(-c3c(O)cccc3C(C)C)c3nc(-c4ccccc4F)c(Cl)cc23)[C@@H](C)C1 [Example 55-26, 6-chloro-7-(2-fluorophenyl)-1-(2-hydroxy-6-(2-propanyl)phenyl)-4-((2S)-2-methyl-4-(2-propenoyl)-1-piperazinyl)pyrido[2,3-d]pyrimidin-2(1H)-one]",0.091 | nda μM,6.67,
